Data: US20170304359A1, “ORAL IODINE DOSAGE FORM” (priority 2016, published 2017)

Columns and labels:
[1] = tested on: MCF7, MDA-MB231, MCF10A, and primary cells; type: cell-based, human
[2] = tested on: breast cancer and fibrocystic cell lines; assay: qRT-PCR gene expression analysis; type: cell-based, human; conditions: molecular iodine treatment
Experimental: An in vitro study was performed to assess the effect of molecular iodine in breast cancer and fibrocystic breast cell lines relative to the effects in human mammary epithelial cells (HMEC)(“primary cells”). The study measured gene expression for key markers in each of the cell lines following in vitro addition to the cells of cell media mixtures that comprised iodine species.
As mentioned in the previous paragraph, each of the four cell lines described in the previous paragraph was added to a sample of each of the six cell media mixtures CM1 to CM6. As an untreated control, one sample for each cell line was mixed with media only. Real-time reverse transcription polymerase chain reaction (qRT-PCR) was used to measure several key mRNA markers for apoptosis and cell growth in breast tissue for each combination of cell line and cell media mixture. The measured markers for cell growth were Cyclin D1, Cyclin E1, Cyclin B1, CDK2, and CDKN1B. The measured markers for apoptosis were BCL2 and Caspase 3. Cyclin D1 is required for progression through the G1 phase of the cell cycle. Cyclin E1 is required for cell cycle G1/S transition. Cyclin B1 is involved in the early events of mitosis, such as chromosome condensation, nuclear envelop breakdown, and spindle pole assembly. CDK2 is required for the transition from G1 to S phase and binding with Cyclin A is required to progress through the S phase. CDKN1B binds to and prevents the activation of cyclin E-CDK2 or Cyclin D-CDK4 complexes, and thus controls the cell cycle progression at G1. BCL2 plays an important role in promoting cellular survival and inhibiting the actions of pro-apoptotic proteins. Caspase 3 plays a central role in the execution phase of cell apoptosis. […] Table 4 presents the data normalized to the corresponding data for the primary cells when added to CM6.
BCL-2, an inhibitor of cell death, was increased, while expression of caspase-3 was decreased.

[3] = tested on: fibrocystic breast condition; conditions: about 3 to about 12 mg of molecular iodine per day; clinical trials (Kessler 2004; Ghent 1993); cited from earlier work
[4] = Aceves et al. 2013; cited from earlier work
[5] = Aceves et al. 2013; cited from earlier work; remark: listed apart in the source

## [I-].[K+] [CM3, potassium iodide, reference compound]
[1]
  selectivity for apoptosis and cell proliferation between cancerous or fibrocystic cells and healthy human mammary epithelial cells: not present

## II [molecular iodine]
[1]; 24 hours, FIG. 3
  susceptibility of breast cancer cell lines compared to primary cells (cell death): more susceptible
[2]
  effects on cell growth in both breast cancer and FBC: potent inhibitory effects
[2]; quantitative RT-PCR
  BCL-2 expression: increased
  Cyclin B expression levels: No significant changes
  expression of caspase-3: decreased
  expression of cell cycle genes controlling G1-S phase transition: largely up-regulated
  expression of nuclear hormone receptor PPAR-α: up-regulated
  expression of nuclear hormone receptor PPAR-γ: up-regulated
[3]
  treatment of fibrocystic breast condition: effective
[4]
  difference in uptake in the thyroid between molecular iodine and iodide: 3-4 fold
[5]
  uptake difference between molecular iodine and iodide in the breast: small uptake difference
